Among the data in PubChem BioAssay (NCI) are TGI and GI50 values, retold here.

What all share (experiment): DTP human tumour cell line panel, 48 h
Experiment [1] relates to HCT-116 colon.
In experiment [2] the test system is HCT-15 colon.
In experiment [3] the test system is HL-60(TB) leukemia.
The subject of experiment [4] is KM12 colon.
Experiment [5] concerns MOLT-4 leukemia.
For experiment [6], the system named is NCI-H226 lung.
Experiment [7] has as its system NCI-H23 lung.
Experiment [8] concerns T-47D breast.
Experiment [9] deals with UACC-62 melanoma.
The subject of experiment [10] is HCC-2998 colon.

Molecules are shown by their SMILES.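 Where inhibition never reached the appropriate level, the endpoint shown equals the highest concentration tested. Otherwise, values were interpolated linearly from a five-concentration, 48-hour dose response in 96-well plates. Here, GI50 denotes the concentration required for 50% inhibition of growth. TGI: total growth inhibition.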

As for `O=[N+]([O-])c1nccn1CCCNCCCn1ccnc1[N+](=O)[O-]`, the total growth inhibition concentration (TGI) in experiment [1], in [2], in experiment [3], in experiment [4], in experiment [5] and in experiment [6] was more than 100 µM throughout. Further, the TGI in experiment [7], in experiment [8] and in [9] was more than 100 µM in each case.

With `CCN(CC)COC(=S)S`, the concentration for total growth inhibition (TGI) (as a rule, the concentration at which net growth stops) was more than 78.1 µM in [10]; more than 100 µM in experiment [1]; more than 100 µM in experiment [2]; more than 100 µM in experiment [4]; 69 µM in experiment [5]; more than 100 µM in [6]. Moreover, the TGI in experiment [7], in experiment [8] and in experiment [9] was more than 100 µM each time.

`COC(=O)c1c(C(=O)OC)c2c3ccccc3n(C)c2c2c1c1ccccc1n2C`: the TGI in [10], in experiment [1], in experiment [2], in experiment [4], in experiment [5] and in [6] was more than 100 µM in each case. Besides, the TGI in [7], in experiment [8] and in [9] was more than 100 µM in each case.

In the case of `CC(=O)Oc1c2oc3cc(O)c(O)cc3c2c(OC(C)=O)c2oc3cc(O)c(O)cc3c12`, the total growth inhibition concentration (TGI) in experiment [10] was 40.7 µM; in [1] it was 38.2 µM; in [2], 72.3 µM; in experiment [3], 13 µM; in experiment [4] it was 44.4 µM; in experiment [5], more than 100 µM. Further, the TGI in experiment [6] came out at 39.2 µM; in [7] it was 7.38 µM; in experiment [9], 40.2 µM.

`O=C(O)CCC(NC(=O)c1ccc(CNc2nc3ccccc3nc2C(=O)O)cc1)C(=O)O` (centres undefined): the concentration for total growth inhibition (TGI) in [1], in experiment [2], in [4], in [5], in experiment [6] and in [7] was more than 100 µM throughout. Besides, in [9], the concentration for total growth inhibition (TGI) was more than 100 µM.

On to `COc1ccccc1NC(=S)Nc1cc(C)ccn1`, for which the TGI in experiment [1], in experiment [2], in experiment [3], in experiment [4], in experiment [5] and in experiment [6] was more than 100 µM throughout. The concentration for total growth inhibition (TGI) in [8] and in [9] was more than 100 µM throughout.

Take `CN(C)C(=O)C1CCN(Cc2c[nH]c3ccccc23)CC1`: the concentration for total growth inhibition (TGI) in [1], in experiment [2], in experiment [3], in experiment [4], in experiment [5] and in experiment [6] was more than 100 µM each time. For the same compound, the total growth inhibition concentration (TGI) in [7], in experiment [8] and in [9] was more than 100 µM throughout.

Take `CCOC(=O)c1[nH]c2nc(SC)nc(Nc3ccccc3Cl)c2c1N`: the TGI in experiment [10] was more than 100 µM; in experiment [1], more than 100 µM; in [2] it was more than 100 µM; in experiment [4], more than 100 µM; in experiment [5] it was 30.5 µM; in [6], 70.2 µM. The figures for the TGI in experiment [7], in [8] and in [9] were 60.5 µM, 33.9 µM and 84.7 µM, respectively.

`COc1cc2c(c(OC(C)=O)c1OC(C)=O)-c1ccc(SC)c(=O)cc1C(NC(C)=O)CC2` (centres undefined): the total growth inhibition concentration (TGI) was more than 100 µM in [10]; 17.5 µM in experiment [1]; more than 100 µM in experiment [2]; 1.34 µM in experiment [3]; 12 µM in experiment [4]; more than 100 µM in experiment [5]. Moreover, the TGI in [6] was 15.1 µM; in experiment [7], 31.4 µM; in experiment [9], more than 100 µM.

As to `Nc1ccccc1N=Nc1c(S(=O)(=O)O)cc2cc(S(=O)(=O)O)cc(O)c2c1O`, the TGI in experiment [10], in [1], in experiment [2], in [4], in [5] and in experiment [6] was more than 100 µM in each case. In addition, the TGI in experiment [7], in experiment [8] and in [9] was more than 100 µM throughout.

As for `Cn1c(-c2ccc(N=NNc3ccc(-c4n[nH]c(=S)n4C)cc3)cc2)n[nH]c1=S`, the concentration for total growth inhibition (TGI) in experiment [1] is more than 100 µM; in experiment [2] it was more than 100 µM; in experiment [3] it was more than 100 µM; in experiment [5] it was more than 100 µM; in [6], 48.8 µM; in experiment [7] it was more than 100 µM. The compound also registered a TGI in [8] of 8.28 µM.

Take `CN(C)CCCNC(=O)c1cc(NC(=O)c2cc(NC(=O)[C@@H]3C[C@H]3C(=O)Nc3cc(C(=O)Nc4cc(C(=O)NCCCN(C)C)n(C)c4)n(C)c3)cn2C)cn1C`: the TGI in experiment [10], in [1], in [3], in experiment [4], in experiment [5] and in experiment [6] was more than 100 µM each time. Further, in [7], the concentration for total growth inhibition (TGI) was more than 100 µM.

`COc1ncnc2c1cnn2Cc1cn(CCCCO)nn1`: the total growth inhibition concentration (TGI) in [10], in [1], in [2], in experiment [4], in experiment [5] and in [6] was more than 100 µM throughout. Moreover, the TGI in [7], in experiment [8] and in [9] was more than 100 µM throughout.

Take `Cc1ccc(C2CC(c3cccc(Nc4ccncc4)c3)=NN2c2ccccc2)cc1` (centres undefined): the GI50 – broadly, the concentration giving 50% growth inhibition – is 1.6 µM in experiment [10]; 1.75 µM in experiment [4]; 1.95 µM in experiment [5]; 1.53 µM in experiment [7]; 2.02 µM in experiment [8]; 1.71 µM in experiment [9]. The TGI stood at 2.96 µM in [10]; 3.25 µM in experiment [4]; 4.64 µM in experiment [5]; 2.97 µM in experiment [7]; 4.85 µM in [8]; 3.12 µM in experiment [9].

Regarding `Oc1cc(CN2COc3ccccc32)c(O)cc1CNC1CCCCC1`, the TGI in experiment [1] is 35.3 µM; in [2], 47.6 µM; in experiment [4] it was more than 100 µM; in experiment [5] it was 39.3 µM; in [7] it was 64.5 µM; in experiment [8] it was 64.7 µM. Besides, the TGI in experiment [9] came to 55.1 µM.

For `CC1=CC(C)(C)Nc2ccc(CSc3ccccc3)cc21`, the total growth inhibition concentration (TGI) in experiment [10] is 45.1 µM; in experiment [1] it was 91.9 µM; in [2] it was more than 100 µM; in experiment [4] it was 63.5 µM; in [6] it was more than 100 µM; in experiment [7], more than 100 µM. The TGI in [9] was more than 100 µM.

`BrCC(Br)(c1ccccc1)c1ccccc1-c1cc(-c2ccccc2)cc(-c2ccccc2)n1` (centres undefined): the TGI in experiment [10] amounted to 9.8 µM; in [1], 12.3 µM; in experiment [2], 30 µM; in experiment [3], 2.33 µM; in experiment [4], 12.6 µM; in [5] it was 17.3 µM. Further, the TGI is 15.1 µM in experiment [6] and 36 µM in experiment [7].

Turning to `CC(=O)N/C(=C\c1ccc(/C=C(\NC(C)=O)C2=NC3C(=O)c4ccccc4C(=O)C3N2)cc1)C1=NC2C(=O)c3ccccc3C(=O)C2N1` (centres undefined), the TGI was more than 100 µM in [1]; more than 100 µM in experiment [2]; more than 100 µM in [3]; more than 100 µM in experiment [4]; 26.6 µM in experiment [5]; more than 100 µM in [6]. Besides, the TGI in experiment [7] and in experiment [9] was more than 100 µM each time.

Turning to `O=C1CN(c2ccc(Cl)cc2)C(=O)CN1NCNN1CC(=O)N(c2ccc(Cl)cc2)CC1=O`, the total growth inhibition concentration (TGI) in experiment [10], in experiment [1], in experiment [2], in [3], in experiment [4] and in experiment [5] was more than 100 µM throughout. In addition, the TGI in [7] and in [9] was more than 100 µM each time.

For the compound `C[N+](C)([O-])Cc1cc(-c2ccccc2)ccc1O`, the TGI in [10], in experiment [1], in experiment [2], in experiment [4], in experiment [5] and in experiment [6] was more than 100 µM each time. Also, the total growth inhibition concentration (TGI) in [7], in experiment [8] and in experiment [9] was more than 100 µM in each case.

Regarding `COc1ccc2c(c1)C(N)=C(Cc1ccncc1)C2=O`, the concentration for total growth inhibition (TGI) in experiment [1], in [2], in [3], in experiment [4], in experiment [5] and in [7] was more than 100 µM throughout. In addition, the TGI in experiment [8] and in experiment [9] was more than 100 µM in each case.

With `C[C@]12CC/C(=N\OCCN3CCCCC3)C=C1CCC1C2CC[C@@]2(C)C1CC[C@]2(C)O` (some centres undefined), the TGI in [10] amounted to 22.1 µM; in experiment [1], 21.3 µM; in experiment [2], 27.6 µM; in [4], 26.6 µM; in experiment [5], 6.84 µM; in experiment [6], 14.2 µM. In addition, the TGI in [7] is 33.5 µM; in [8], 97.2 µM; in [9], 24.8 µM.

Take `Cc1cc(C)n(CN(Cn2nc(C)cc2C)c2ccccc2)n1`: the TGI amounted to 41.4 µM in [1]; 50.2 µM in [2]; 27.3 µM in experiment [3]; 42.6 µM in experiment [4]; 28.3 µM in [5]; 40.8 µM in experiment [7]. Besides, the TGI in [8] is more than 100 µM; in experiment [9], 26.5 µM.

As for `CC(NC(NC(C)C12CC3CC(CC(C3)C1)C2)=C(C(Cl)=C(Cl)Cl)[N+](=O)[O-])C12CC3CC(CC(C3)C1)C2` (centres undefined), the concentration for total growth inhibition (TGI) is more than 75 µM in experiment [10]; 40 µM in experiment [1]; more than 100 µM in experiment [2]; more than 100 µM in [4]; more than 100 µM in [5]; more than 61.7 µM in experiment [6]. Also, the concentration for total growth inhibition (TGI) in [7] is 34.3 µM; in experiment [8], more than 100 µM; in experiment [9], more than 100 µM.

For the compound `[O-][n+]1c(-c2ccccc2)c2nc3ccccc3nc2c2ccccc21`, the TGI in experiment [10], in experiment [1], in experiment [2], in experiment [4], in [5] and in experiment [6] was more than 100 µM in each case. Moreover, the total growth inhibition concentration (TGI) in [7] and in experiment [9] was more than 100 µM each time.

`CCN(CC)CCNc1ccc2nnn3c4ccccc4c(=O)c1c23`: the TGI in experiment [10] was found to be 20.9 µM; in experiment [1], 35.2 µM; in experiment [2], 26.2 µM; in experiment [3], 8.59 µM; in [4], 17.3 µM; in experiment [5], 6.7 µM. Also, the TGI stood at 8.09 µM in [6], 19.7 µM in experiment [7] and 20.4 µM in experiment [9].

For `Cc1c2c(ccc3ccccc32)c[n+]2ccccc12`, the concentration for total growth inhibition (TGI) in experiment [10] was 26 µM; in experiment [1], more than 100 µM; in experiment [2] it was more than 100 µM; in experiment [3], 68.5 µM; in experiment [4], 11.8 µM; in experiment [5], 27.9 µM. Further, the TGI in experiment [6] worked out at 35.1 µM; in experiment [7], 22.5 µM.

On to `N#CCCN(CCC#N)c1ccc(C(N=Nc2ccc(Cl)cc2)=Nc2ccc(F)cc2)cc1`, for which the TGI in experiment [10], in experiment [1], in [2], in experiment [4], in experiment [5] and in experiment [6] was more than 100 µM in each case. In addition, the TGI in experiment [7], in experiment [8] and in experiment [9] was more than 100 µM each time.

For the compound `C=C1CC(COc2ccc3c(C)cc(=O)oc3c2)(c2ccccc2)OC1=O` (centres undefined), the TGI was 10.1 µM in experiment [10]; 2.73 µM in [1]; 3.62 µM in experiment [2]; more than 27.7 µM in experiment [4]; 6.77 µM in experiment [5]; 15.7 µM in [6]. The TGI stood at 5.53 µM in experiment [7] and 3.05 µM in experiment [9].

For `O=[As](O)(O)c1ccc2nc3cc([As](=O)(O)O)ccc3nc2c1`, the TGI in [10], in experiment [1], in experiment [2], in experiment [4], in experiment [5] and in experiment [6] was more than 100 µM each time. Moreover, the total growth inhibition concentration (TGI) in experiment [7], in [8] and in experiment [9] was more than 100 µM in each case.
